Results taken from the supplement of paper PMC5844555.

How the values were obtained:
Assay in all cases: 3' UTR reporter interaction score (median-centred robust z-score of log2 firefly/Renilla activity); higher = less repression of the 3' UTR reporter
Details in all cases: HEK293T; 48 h
MYB = tested on: MYB
In short: (§1)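 The interaction score is based on the log-transformed firefly/Renilla luciferase ratio, scaled as a robust z-score within each plate by median and median absolute deviation and median-centred for each miRNA; more negative scores indicate interaction. It was averaged over at least two independent screens. Readings were taken 48 h after HEK293T cells (10,000/well, 96-well plates) were co-transfected by DharmaFECT Duo with 100 ng firefly luc2P 3' UTR reporter, 20 ng Renilla pRL-TK and 2.5 pmol miRNA mimic.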

MYC = tested on: MYC
In short: as §1

TP53 = tested on: TP53
In short: as §1

RB1 = tested on: RB1
In short: as §1

NOTCH1 = tested on: NOTCH1
In short: as §1

HRAS = tested on: HRAS
In short: as §1

FBXW7 = tested on: FBXW7
In short: as §1

ZEB2 = tested on: ZEB2
In short: as §1

BRCA2 = tested on: BRCA2
In short: as §1

PHOX2B = tested on: PHOX2B
In short: as §1

EZH2 = tested on: EZH2
In short: as §1

PHF6 = tested on: PHF6
In short: as §1

MYCN = tested on: MYCN
In short: as §1

MYT1L = tested on: MYT1L
In short: as §1

Sequence | 3' UTR reporter interaction score (MYB) | 3' UTR reporter interaction score (MYC) | 3' UTR reporter interaction score (TP53) | 3' UTR reporter interaction score (RB1) | 3' UTR reporter interaction score (NOTCH1) | 3' UTR reporter interaction score (HRAS) | 3' UTR reporter interaction score (FBXW7) | 3' UTR reporter interaction score (ZEB2) | 3' UTR reporter interaction score (BRCA2) | 3' UTR reporter interaction score (PHOX2B) | 3' UTR reporter interaction score (EZH2) | 3' UTR reporter interaction score (PHF6) | 3' UTR reporter interaction score (MYCN) | 3' UTR reporter interaction score (MYT1L)
AACCCGUAGAUCCGAACUUGUG | 0.491 | 0.114 | 1.86 | 0.915 | -0.555 | 0.79 | -0.349 | -1.13 | 0.951 | -4.05 | 0.142 | -0.96 | -0.886 | -0.266
GUGCCUACUGAGCUGAUAUCAGU | 0.61 | 0.239 | 0.396 | 0.454 | -1.95 | -0.972 | 0.26 | -0.6 | 0.244 | 1.18 | 0.242 | -1.31 | 0.559 | -1.1
UUGUGCUUGAUCUAACCAUGU | 0.205 | 0.0929 | -0.638 | 0.758 | 0.182 | -0.276 | 0.164 | -0.746 | 0.391 | -1.73 | 0.222 | 0.117 | -0.328 | -0.134
GAAGGCGCUUCCCUUUAGAGC | 0.182 | -0.899 | -0.514 | 0.388 | -0.268 | -1.63 | 0.412 | 0.676 | 0.0383 | 1.35 | -1.42 | 0.189 | 0.218 | 0.364
AUUACAUGGCCAAUCUC | 0.0435 | 0.104 | 0.293 | -1.24 | 0.461 | -0.228 | 0.611 | -0.413 | -0.25 | 1.43 | -0.208 | -0.0228 | 0.193 | -0.267
UCGGAUCCGUCUGAGCUUGGCU | -4.97 | -0.287 | -0.412 | -0.185 | 0.076 | 1.22 | 0.968 | 0.123 | 1.24 | -0.526 | 1.84 | -0.555 | 1.3 | -1.06
AGGGGUGGUGUUGGGACAGCUCCGU | -0.179 | -0.499 | 0.0145 | 0.429 | -4.27 | -1.12 | 0.925 | 0.212 | -0.768 | -0.841 | 0.203 | -0.137 | 0.408 | -0.319
UAAUACUGCCGGGUAAUGAUGG | -1.24 | 0.778 | 0.205 | 0.254 | -0.992 | -0.939 | -0.707 | -2.81 | -0.155 | -0.44 | 0.453 | 0.321 | -0.263 | 1.25
ACUGCCCUAAGUGCUCCUUCU | -0.35 | 0.276 | 0.48 | -0.147 | -0.46 | -0.229 | 0.408 | -0.687 | -0.325 | 0.63 | 0.0537 | -0.374 | 1.21 | 0.161
AGGAAUGUUCCUUCUUUGCC | -0.0682 | 0.63 | -0.812 | 0.276 | -0.469 | 0.683 | -2.13 | 2.6 | -1.4 | 2.32 | -0.309 | -0.446 | -0.0855 | -0.098
AGACCCUGGUCUGCACUCUAU | 0.748 | 2.47 | -5.07 | -2.99 | -0.49 | 1.38 | 1.02 | -0.0019 | 0.647 | -0.928 | 2.76 | -3.41 | 1.92 | -1.4
CCACACCGUAUCUGACACUUU | -0.254 | -1.37 | 0.0153 | 0.211 | -0.439 | -0.828 | 0.287 | 1.51 | -0.654 | 0.567 | -0.643 | 0.504 | 0.101 | 0.0842
AAAGUAGCUGUACCAUUUGC | 1.14 | -0.314 | 0.1 | -0.735 | 1.58 | -1.6 | 0.57 | 1.39 | 0.0379 | -0.926 | -0.677 | -0.00285 | 0.676 | 0.719
GCACAUUACACGGUCGACCUCU | 0.761 | -0.285 | -0.315 | -0.0189 | -0.223 | -0.25 | 0.52 | 1.19 | -0.107 | -1.13 | -0.1 | 0.116 | 0.192 | -0.0362
CUGAAGUGAUGUGUAACUGAUCAG | -1.34 | 0.252 | 0.516 | -0.534 | 2.11 | 0.253 | -0.0116 | -0.764 | -1.33 | -1.07 | 0.809 | -0.442 | -0.441 | 1.21
AAAAGCUGGGUUGAGAGGGCGAA | 1.19 | 0.0971 | -0.479 | 0.499 | 0.666 | -0.583 | 0.0632 | 1.15 | 0.138 | -1.64 | -2.65 | 0.0922 | 0.121 | -0.165
UCCGUCUCAGUUACUUUAUAGCC | -1.75 | 0.0204 | 1.13 | 0.307 | -0.0124 | -0.357 | -1.56 | -2.24 | 1.46 | -0.906 | 0.571 | 2.5 | -0.29 | -0.738
UUCCCUUUGUCAUCCUAUGCCU | 0.747 | -0.0967 | -0.382 | 0.112 | -0.728 | -0.0998 | -1.78 | 0.832 | 0.265 | -5.45 | 0.404 | 2.55 | 0.146 | -0.655
CUGGCCCUCUCUGCCCUUCCGU | 0.857 | 1.14 | -0.27 | -0.329 | -0.752 | 1.31 | -0.17 | 0.72 | 0.17 | -0.839 | 0.421 | -2.64 | 1.01 | 0.19
